Experimental data taken from ChEMBL document CHEMBL5096161, “Medulloblastoma drugs in development: Current leads, trials and drawbacks” (Eur J Med Chem, 2021).

Columns and labels:
[1] = Antitumor activity against human D384 Med cells assessed as reduction in cell viability incubated for 24 hrs by Alamar blue assay; type: functional, cell-based
[2] = Antitumor activity against human D341 Med cells assessed as reduction in cell viability incubated for 24 hrs by Alamar blue assay; type: functional, cell-based
[3] = Antitumor activity against human D425 Med cells assessed as reduction in cell viability incubated for 24 hrs by Alamar blue assay; type: functional, cell-based
D283 Med = assay: Anticancer activity against human D283 Med cells assessed as reduction in cell viability incubated for 72 hrs; type: functional, cell-based
[4] = Anticancer activity against human MED-MEB-8A cells assessed as reduction in cell viability incubated for 72 hrs; type: functional, cell-based
Mus musculus = assay: Antitumor activity in Ptch+/- p53-/- mutant mouse medulloblastoma allograft model assessed as increase in survival rate at 50 mg/kg, po QD relative to control (Rvb=75 days); type: functional
[5] = biological target: Vascular endothelial growth factor receptor 2 (Homo sapiens, UniProt P35968); assay: Inhibition of human VEGFR2 (789 to 1356 residues) assessed as reduction in autophosphorylation at Y1175 residues using poly (Glu4Tyr1) peptide and ATP as substrate incubated for 60 mins by ADP-Glo Kinase Assay
Vascular endothelial growth factor receptor 2, sequence (P35968 whole entry, the tested form may be a part): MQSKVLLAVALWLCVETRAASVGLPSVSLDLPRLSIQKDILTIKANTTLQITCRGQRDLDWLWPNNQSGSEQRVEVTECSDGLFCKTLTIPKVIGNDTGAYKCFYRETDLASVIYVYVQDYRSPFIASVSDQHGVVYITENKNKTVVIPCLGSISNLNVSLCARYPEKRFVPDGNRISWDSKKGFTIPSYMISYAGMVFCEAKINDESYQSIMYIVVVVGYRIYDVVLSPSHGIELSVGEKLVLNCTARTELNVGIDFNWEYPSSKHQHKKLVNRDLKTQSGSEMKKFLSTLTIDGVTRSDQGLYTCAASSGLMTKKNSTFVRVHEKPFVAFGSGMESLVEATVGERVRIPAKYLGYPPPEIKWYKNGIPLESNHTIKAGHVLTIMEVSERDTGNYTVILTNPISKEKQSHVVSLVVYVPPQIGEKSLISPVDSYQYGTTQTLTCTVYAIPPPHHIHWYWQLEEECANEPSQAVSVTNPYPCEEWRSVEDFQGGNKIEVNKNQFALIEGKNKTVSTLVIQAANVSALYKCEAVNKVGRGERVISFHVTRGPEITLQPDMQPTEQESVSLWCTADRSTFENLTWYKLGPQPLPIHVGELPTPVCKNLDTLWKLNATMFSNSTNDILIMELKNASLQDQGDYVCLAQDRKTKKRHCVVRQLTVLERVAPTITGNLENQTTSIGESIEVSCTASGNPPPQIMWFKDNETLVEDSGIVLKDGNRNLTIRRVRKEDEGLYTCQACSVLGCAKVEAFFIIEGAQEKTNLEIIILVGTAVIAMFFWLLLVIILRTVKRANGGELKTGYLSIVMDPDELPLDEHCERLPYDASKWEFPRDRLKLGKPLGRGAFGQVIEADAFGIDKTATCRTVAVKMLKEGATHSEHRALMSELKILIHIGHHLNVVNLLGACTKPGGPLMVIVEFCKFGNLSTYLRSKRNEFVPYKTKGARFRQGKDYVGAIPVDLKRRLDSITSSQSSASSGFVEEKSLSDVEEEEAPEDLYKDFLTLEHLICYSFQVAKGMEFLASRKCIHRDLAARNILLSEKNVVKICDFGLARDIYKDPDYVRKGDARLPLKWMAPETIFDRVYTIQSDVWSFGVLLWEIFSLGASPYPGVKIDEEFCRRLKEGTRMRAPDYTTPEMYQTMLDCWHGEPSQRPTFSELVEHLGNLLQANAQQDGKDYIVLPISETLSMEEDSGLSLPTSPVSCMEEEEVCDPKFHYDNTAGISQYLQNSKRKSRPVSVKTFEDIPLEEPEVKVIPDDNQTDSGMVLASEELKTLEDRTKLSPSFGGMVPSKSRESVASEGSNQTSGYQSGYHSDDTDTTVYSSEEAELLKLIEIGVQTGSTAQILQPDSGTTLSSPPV

Compound `CCCCCCCCc1ccc(CCC(N)(CO)CO)cc1` [FINGOLIMOD] has an IC50 [1] of 7.3 µM, an IC50 [2] of 5.5 µM and an IC50 [3] of 7.5 µM.
For `C[C@H]1O[C@@H](O[C@H]2[C@@H](O)C[C@H](O[C@H]3[C@@H](O)C[C@H](O[C@H]4CC[C@@]5(C)[C@H](CC[C@@H]6[C@@H]5C[C@@H](O)[C@]5(C)[C@@H](C7=CC(=O)OC7)CC[C@]65O)C4)O[C@@H]3C)O[C@@H]2C)C[C@H](O)[C@@H]1O` [DIGOXIN], the IC50 (D283 Med) was 0.01 µM and the IC50 [4] was 0.106 µM.
With `COC(=O)Nc1nc2cc(C(=O)c3ccccc3)ccc2[nH]1` [MEBENDAZOLE] the MST (Mus musculus) was 113 days and the IC50 [5] was 4.3 µM.
